The record followed here is PubChem BioAssay AID328 (DTP/NCI, 2004).

Toxic doses and inconclusive results are not listed.

The assay has as its system BDF1 mice, P388 leukemia ip, median survival T/C. The assay is described as follows: NCI In Vivo Anticancer Drug Screen. Data for tumor model P388 Leukemia (intraperitoneal) in B6D2F1 (BDF1) mice. As to conditions: endpoint: median survival time, higher = longer survival. The essentials:
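Read-out is survival of treated animals expressed relative to the vehicle group, as a T/C ratio.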

Where [1] appears, read: dose: 100.0 mg/kg/injection, schedule: Q01DX009 (ip), vehicle: Klucel (hydroxypropylcellulose) (HPC).
[2] abbreviates: dose: 200.0 mg/kg/injection, schedule: Q01DX009 (ip), vehicle: Klucel (hydroxypropylcellulose) (HPC).
Where [3] appears, read: dose: 400.0 mg/kg/injection, schedule: Q01DX009 (ip), vehicle: Klucel (hydroxypropylcellulose) (HPC).
The mark [4] stands for this setting: dose: 100.0 mg/kg/injection, schedule: Q01DX009 (ip), vehicle: water.
Setting [5] is: dose: 200.0 mg/kg/injection, schedule: Q01DX009 (ip), vehicle: water.
[6] abbreviates: dose: 400.0 mg/kg/injection, schedule: Q01DX009 (ip), vehicle: water.

For `CC1C(=O)OC(C)(C)OC1=O`, the T/C is 106 % of control (dose: 25.0 mg/kg/injection, schedule: Q01DX009 (ip), vehicle: Klucel (hydroxypropylcellulose) (HPC)); 91 % of control (dose: 25.0 mg/kg/injection, schedule: Q04DX003 (ip), vehicle: Klucel (hydroxypropylcellulose) (HPC)); 97 % of control (dose: 50.0 mg/kg/injection, schedule: Q01DX009 (ip), vehicle: Klucel (hydroxypropylcellulose) (HPC)); 123 % of control (dose: 50.0 mg/kg/injection, schedule: Q04DX003 (ip), vehicle: Klucel (hydroxypropylcellulose) (HPC)); 105 % of control under setting [1]; 97 % of control (dose: 100.0 mg/kg/injection, schedule: Q04DX003 (ip), vehicle: Klucel (hydroxypropylcellulose) (HPC)). For the same compound, the T/C is, setting by setting: under setting [2], 104 % of control; (dose: 200.0 mg/kg/injection, schedule: Q04DX003 (ip), vehicle: Klucel (hydroxypropylcellulose) (HPC)) 94 % of control; under setting [3], 99 % of control; (dose: 400.0 mg/kg/injection, schedule: Q04DX003 (ip), vehicle: Klucel (hydroxypropylcellulose) (HPC)) 106 % of control.
On to `CCCSc1ccc([N+](=O)[O-])cc1`, for which the T/C is 93 % of control (dose: 200.0 mg/kg/injection, schedule: Q04DX002 (ip), vehicle: saline with Tween-80) and 101 % of control (dose: 400.0 mg/kg/injection, schedule: Q04DX002 (ip), vehicle: saline with Tween-80).
For the compound `O=C(CCN1CC1)OCCOC(=O)CCN1CC1`, the T/C reads like this: (dose: 1.5 mg/kg/injection, schedule: Q01DX009 (ip), vehicle: saline with Tween-80) 112 % of control; (dose: 16.0 mg/kg/injection, schedule: Q04DX003 (ip), vehicle: saline with Tween-80) 150 % of control; (dose: 21.0 mg/kg/injection, schedule: Q04DX003 (ip), vehicle: saline with Tween-80) 163 % of control; (dose: 33.0 mg/kg/injection, schedule: Q04DX003 (ip), vehicle: saline with Tween-80) 163 % of control; (dose: 50.0 mg/kg/injection, schedule: Q04DX003 (ip), vehicle: saline with Tween-80) 195 % of control; (dose: 75.0 mg/kg/injection, schedule: Q04DX003 (ip), vehicle: saline with Tween-80) 181 % of control.
In the case of `Cn1c(CCCC(=O)O)nc2cc(N(CCCl)CCCl)ccc21`, the T/C is 116 % of control (dose: 1.8 mg/kg/injection, schedule: Q04DX003 (ip), vehicle: saline); 154 % of control (dose: 2.5 mg/kg/injection, schedule: Q01DX009 (ip), vehicle: saline); 175 % of control (dose: 4.3 mg/kg/injection, schedule: Q04DX003 (ip), vehicle: saline with Tween-80); 166 % of control (dose: 5.0 mg/kg/injection, schedule: Q01DX009 (ip), vehicle: saline); 185 % of control (dose: 6.5 mg/kg/injection, schedule: Q04DX003 (ip), vehicle: saline with Tween-80); 180 % of control (dose: 9.9 mg/kg/injection, schedule: Q04DX003 (ip), vehicle: saline with Tween-80). Further, the T/C was 200 % of control (dose: 10.0 mg/kg/injection, schedule: Q01DX009 (ip), vehicle: saline); 200 % of control (dose: 15.0 mg/kg/injection, schedule: Q04DX003 (ip), vehicle: saline with Tween-80); 180 % of control (dose: 22.5 mg/kg/injection, schedule: Q04DX003 (ip), vehicle: saline with Tween-80).
For `CCN1CC1` (tested in a mixture with another compound), the T/C was 95 % of control (dose: 0.14 mg/kg/injection, schedule: Q01DX009 (ip), vehicle: saline); 86 % of control (dose: 0.29 mg/kg/injection, schedule: Q01DX009 (ip), vehicle: saline); 90 % of control (dose: 0.58 mg/kg/injection, schedule: Q01DX009 (ip), vehicle: saline); 120 % of control (dose: 1.17 mg/kg/injection, schedule: Q01DX009 (ip), vehicle: saline); 120 % of control (dose: 2.34 mg/kg/injection, schedule: Q01DX009 (ip), vehicle: saline).
As for `O=C(O)c1sccc1-c1cccc2ccccc12`, the T/C is 104 % of control (dose: 50.0 mg/kg/injection, schedule: Q01DX001 (ip), vehicle: saline); 100 % of control (dose: 100.0 mg/kg/injection, schedule: Q01DX001 (ip), vehicle: saline); 95 % of control (dose: 200.0 mg/kg/injection, schedule: Q01DX001 (ip), vehicle: saline).
Take `COc1cc([C@@H]2c3cc4c(cc3[C@H](O)[C@H]3COC(=O)[C@H]23)OCO4)cc(OC)c1OC`: the T/C is 118 % of control (dose: 1.0 mg/kg/injection, schedule: Q01DX010 (ip), vehicle: steriod suspending solution); 171 % of control (dose: 2.0 mg/kg/injection, schedule: Q01DX010 (ip), vehicle: carboxymethylcellulose (CMC)); 115 % of control (dose: 2.25 mg/kg/injection, schedule: Q01DX001 (ip), vehicle: other); 150 % of control (dose: 2.25 mg/kg/injection, schedule: Q01DX010 (ip), vehicle: other); 95 % of control (dose: 4.0 mg/kg/injection, schedule: Q01DX010 (ip), vehicle: carboxymethylcellulose (CMC)); 154 % of control (dose: 4.5 mg/kg/injection, schedule: Q01DX010 (ip), vehicle: other). For the same compound, the T/C is, setting by setting: (dose: 9.0 mg/kg/injection, schedule: Q01DX001 (ip), vehicle: other) 115 % of control; (dose: 9.0 mg/kg/injection, schedule: Q01DX010 (ip), vehicle: other) 95 % of control.
In the case of `Fc1ccc(CSc2ncnc3c2ncn3C2CCCCO2)cc1` (centres undefined), the T/C is, setting by setting: (dose: 100.0 mg/kg/injection, schedule: Q04DX003 (ip), vehicle: other) 100 % of control; under setting [2], 100 % of control; (dose: 200.0 mg/kg/injection, schedule: Q04DX003 (ip), vehicle: other) 100 % of control; (dose: 400.0 mg/kg/injection, schedule: Q04DX003 (ip), vehicle: other) 105 % of control.
For `N#CC(C#N)=C1SCS1`, the T/C was 123 % of control (dose: 3.12 mg/kg/injection, schedule: Q01DX009 (ip), vehicle: saline with Tween-80) and 123 % of control (dose: 6.25 mg/kg/injection, schedule: Q01DX009 (ip), vehicle: saline with Tween-80).
For `O=C(COc1cc(Cl)c(Cl)cc1Cl)OCCOc1cc(Cl)c(Cl)cc1Cl`, the T/C reads like this: (dose: 3.13 mg/kg/injection, schedule: Q01DX009 (ip), vehicle: saline with Tween-80) 91 % of control; (dose: 3.13 mg/kg/injection, schedule: Q04DX003 (ip), vehicle: saline with Tween-80) 100 % of control; (dose: 6.25 mg/kg/injection, schedule: Q04DX003 (ip), vehicle: saline with Tween-80) 95 % of control; (dose: 12.5 mg/kg/injection, schedule: Q04DX003 (ip), vehicle: saline with Tween-80) 100 % of control.
In the case of `C=C(C(N)=O)c1cc(Cl)ccc1Cl`, the T/C by setting is: under setting [4], 110 % of control; (dose: 100.0 mg/kg/injection, schedule: Q04DX003 (ip), vehicle: saline with Tween-80) 100 % of control; under setting [5], 100 % of control; (dose: 200.0 mg/kg/injection, schedule: Q04DX003 (ip), vehicle: saline with Tween-80) 95 % of control; under setting [6], 100 % of control; (dose: 400.0 mg/kg/injection, schedule: Q04DX003 (ip), vehicle: saline with Tween-80) 95 % of control.
On to `Cc1ccccc1OS(=O)(=O)c1ccccc1[N+](=O)[O-]`, for which the T/C (dose: 100.0 mg/kg/injection, schedule: Q01DX001 (ip), vehicle: saline sonified) was 100 % of control; the T/C (dose: 200.0 mg/kg/injection, schedule: Q01DX001 (ip), vehicle: saline sonified) is 110 % of control; the T/C (dose: 400.0 mg/kg/injection, schedule: Q01DX001 (ip), vehicle: saline sonified) was 105 % of control.
`CCOC(=O)C1(C(=O)O)CC2C(C)C=CC(C)C2C1` (centres undefined): the T/C reads like this: under setting [1], 95 % of control; under setting [2], 110 % of control; under setting [3], 100 % of control.
As to `CCCCCCOc1cccc(OCCCC[N+]2(CC)CCCCC2)c1`, the T/C (dose: 6.25 mg/kg/injection, schedule: Q01DX009 (ip), vehicle: saline) is 108 % of control.
As to `Cc1nc(N)cc(=O)[nH]1`, the T/C is, setting by setting: under setting [4], 105 % of control; under setting [5], 110 % of control; under setting [6], 95 % of control.
